Patent publication US20010046478A1, “Antiinfective combinations and their use for the topical treatment of fungal infections of the toenails and fingernails” (priority 2000, published 2001)

Experiments:
[1] = Amount of antimycotic in the nail after topical application of the lacquer compositions, HPLC after extraction of distal nail material; format: in vivo, human
Description: The amount of antimycotic in the nail after application of the compositions according to the invention was determined by HPLC measurements after extraction of distal nail material obtained on cutting the nails of volunteers.
After treatment 2× a week for 6 weeks, the values found for the composition of Example 3 were as follows:
After treatment 2× a week for 2 weeks, the values found for the composition of Example 4 were as follows: […]

[2] = oral administration of 100 mg of itraconazole each day for 3 months; cited from earlier work
[3] = composition of Example 3, topical, treatment 2x a week for 6 weeks, distal nail material of volunteers

| amount of antimycotic in the nail [1, 3] | amount of antimycotic in the nail ([1]; composition of Example 4, topical, treatment 2x a week for 2 weeks, distal nail material of volunteers) | amount of antimycotic in the nail ([1]; human, in vivo, 2 weeks) | Structure (SMILES) | itraconazole concentration in the distal nail plate [2] |
| --- | --- | --- | --- | --- |
| 140 μg/g of nail | 92 μg/g of nail | – | Cc1cc(C2CCCCC2)n(O)c(=O)c1 [ciclopirox, 6-cyclohexyl-1-hydroxy-4-methyl-2(1H)-pyridone] | – |
| – | – | 17 μg/g of nail | OC(Cn1cncn1)(Cn1cncn1)c1ccc(F)cc1F [fluconazole, α-(2,4-difluorophenyl)-α-(1H-1,2,4-triazol-1-ylmethyl)-1H-1,2,4-triazol-1-ethanol] | – |
| 800 ng/g of nail | – | – | CCC(C)n1ncn(-c2ccc(N3CCN(c4ccc(OCC5COC(Cn6cncn6)(c6ccc(Cl)cc6Cl)O5)cc4)CC3)cc2)c1=O (centres unmarked) [itraconazole] | 100 ng/g of nail |
